Where two headings read alike, the source gives them in different places.
How the values were obtained:
[1] = Part 1 PK study of BIIB091 formulations and regimens in healthy subjects; assay type: in vivo, human
Experimental: (§1) In a single center, open-label study, several formulations and treatment regimens were explored to reduce pharmacokinetic (PK) variability and achieve steady state Ctrough>221 ng/mL while limiting the drug exposure (Cmax). The study included 3 parts.
(§2) IR tablet (50 mg) was tested in 19 healthy subjects at different dose levels (150, 250 and 350 mg) and in the fed (moderate fat and high fat) and fasted state and as a divided daily dose (12 h apart). Subject were treated with BIIB091 up to 4 periods. To facilitate comparisons between different regimens, subjects were randomized into 2 groups (Group 1 and Group 2) pre-dose on Day 1 in Periods 1, 3 and 4. Period 2 was utilized as a reference period, where all subjects were dosed with the BIIB091 IR DiC (drug in capsule).

[2] = Part 1 safety and tolerability in healthy subjects; assay type: in vivo, human; details: all regimens tested, Part 1 (150, 250, 350 mg; fed, fasted, divided dose)
Experimental: as §1, §2

CYP3A4 = CYP3A4 (Homo sapiens, UniProt P08684); experiment: Part 2 PK of BIIB091 with CYP3A4 inhibitor itraconazole, fed; assay type: in vivo; details: role: substrate, 200 mg BIIB091 IR tablet
Sequence of CYP3A4 (P08684 whole entry): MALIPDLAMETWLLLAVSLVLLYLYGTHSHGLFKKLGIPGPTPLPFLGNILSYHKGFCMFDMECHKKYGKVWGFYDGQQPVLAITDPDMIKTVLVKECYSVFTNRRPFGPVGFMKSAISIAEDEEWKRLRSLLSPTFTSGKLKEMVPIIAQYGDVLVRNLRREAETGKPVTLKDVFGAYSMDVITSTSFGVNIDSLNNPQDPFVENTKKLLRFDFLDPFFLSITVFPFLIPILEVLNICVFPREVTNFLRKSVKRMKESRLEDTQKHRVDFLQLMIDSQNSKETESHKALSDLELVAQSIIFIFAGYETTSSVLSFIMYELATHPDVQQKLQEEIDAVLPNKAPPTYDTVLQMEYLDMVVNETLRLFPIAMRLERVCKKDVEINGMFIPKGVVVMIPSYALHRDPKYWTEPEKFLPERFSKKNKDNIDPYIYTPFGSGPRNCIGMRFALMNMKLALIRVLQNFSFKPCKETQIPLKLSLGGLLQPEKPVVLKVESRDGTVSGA
Experimental: (§3) A new cohort of 12 healthy male and female (non pregnant and non-lactating) subjects were enrolled and dosed. Subjects were randomized into two groups of 6 subjects, to receive the regimen sequence MNO across 3 study periods (Group 1) or regimen sequence MNP across 3 study periods (Group 2). Both groups were dosed in the fed state in Periods 1 and 2, i.e. BIIB091 alone in the fed state in Period 1, and BIIB091 with the CYP3A4 inhibitor itraconazole in the fed state in Period 2. For the PPI assessment in Period 3, subjects were dosed with BIIB091 co-administered with rabeprazole in the fasted or fed state in order to assess PK under each of these conditions.

[3] = Part 2 PK of BIIB091 with PPI rabeprazole, fasted or fed; assay type: in vivo, human; details: 200 mg BIIB091 IR tablet with rabeprazole 20 mg
Experimental: as §3

[4] = Part 3 multiple dose PK, 250 mg BID x 7 days with moderate fat meal; assay type: in vivo, human; details: 250 mg BID 12 h apart x 7 days
Experimental: (§4) 250 mg BIIB091 was dosed in a new cohort of 10 healthy subjects twice a day (BID) 12 h apart with a moderate fat meal for 7 days. […] Geomean Ctau (CV %) was 407 (48.3%) ng/mL which exceeded the target of >221 ng/mL, with 9/10 subjects achieving the target.

[5] = system: CD69 upregulation on total B cells (CD19+); experiment: CD69 inhibition on ex vivo stimulated total B cells (CD19+), Part 3; assay type: in vivo, human; details: for inhibition at 250 mg: Homo sapiens, B-cell, 250 mg BID
Experimental: as §4

C (Cmax) with HF food ([1]; high fat food): reduced | T (Tmax) with HF food ([1]; high fat food): delayed | AUC with MF meal ([1]; moderate fat meal): similar | C with MF meal ([1]; moderate fat meal): similar | CYP3A4 substrate (CYP3A4; fed, with itraconazole 200 mg): moderate CYP3A4 substrate | BIIB091 exposure with CYP3A4 inhibitor co-administration (CYP3A4; inhibitor itraconazole 200 mg, moderate-fat fed): increased | BIIB091 bioavailability with PPI co-administration, fasted state ([3]; fasted): decreased | BIIB091 bioavailability with PPI together with food, compared with fasted condition ([3]; moderate-fat fed): increased | accumulation ratio for AUCtau [4]: 1.75 | accumulation ratio for Cmax [4]: 1.49 | subjects achieving the target Ctau of >221 ng/mL [4]: 9/10 | concentration at 12 h ([4]; human, in vivo, po, read-out: Geomean Ctau (CV %)): 407 ng/mL
Compound: Cn1cc(Nc2nccc(-c3ccc4c(c3)CN(C3COC3)CC[C@H]4NC(=O)c3cn(C(C)(C)C)nn3)n2)cn1 [Compound 1, (R)-1-(tert-butyl)-N-(8-(2-((1-methyl-1H-pyrazol-4-yl)amino)pyrimidin-4-yl)-2-(oxetan-3-yl)-2,3,4,5-tetrahydro-1H-benzo[c]azepin-5-yl)-1H-1,2,3-triazole-4-carboxamide]
Tmax with MF meal compared to HF ([1]; moderate fat meal): less of a delay in Tmax compared to high fat | safety and tolerability [2]: generally safe and well tolerated | CD69 inhibition at 24 h post final dose ([5]; 250 mg BID x 7 days, 24 h post final dose): returned to baseline | inhibition at 250 mg ([5]; 12 h post-dose, day 1, read-out: CD69 mean inhibition): 86.8% | inhibition at 250 mg ([5]; 12 h post-dose, day 7, read-out: CD69 mean inhibition): 85.4% | inhibition at 250 mg ([5]; Day 1 and 7, from 1 h to 8 h post-dose, ex vivo stimulated B cells, read-out: CD69 inhibition range): 96.5 to 99.2% | inhibition at 250 mg ([5]; Day 1 and 7, from 1 h to 8 h post-dose, ex vivo stimulated B cells, read-out: mean inhibition of CD69 upregulation from Day 1 pre-dose baseline): > 90%
